Consider nine molecules from ChEMBL document CHEMBL3992544, “Novel 6-methoxycarbonyl indolinones bearing a pyrrole Mannich base moiety as angiokinase inhibitors” (Bioorg Med Chem, 2017).

Each structure is given as a SMILES string.

For assay [1], the target named is Platelet-derived growth factor receptor beta (Homo sapiens, UniProt P09619). Put plainly: Inhibition of human N-terminal GST-tagged PDGFRbeta cytoplasmic domain (557 to 1106 residues) expressed in baculovirus expression system preincubated for 10 mins followed by FAM-labeled peptide substrate addition measured after 1 hr by mobility shift assay.
Chain of Platelet-derived growth factor receptor beta (P09619 whole entry, the tested form may be a part): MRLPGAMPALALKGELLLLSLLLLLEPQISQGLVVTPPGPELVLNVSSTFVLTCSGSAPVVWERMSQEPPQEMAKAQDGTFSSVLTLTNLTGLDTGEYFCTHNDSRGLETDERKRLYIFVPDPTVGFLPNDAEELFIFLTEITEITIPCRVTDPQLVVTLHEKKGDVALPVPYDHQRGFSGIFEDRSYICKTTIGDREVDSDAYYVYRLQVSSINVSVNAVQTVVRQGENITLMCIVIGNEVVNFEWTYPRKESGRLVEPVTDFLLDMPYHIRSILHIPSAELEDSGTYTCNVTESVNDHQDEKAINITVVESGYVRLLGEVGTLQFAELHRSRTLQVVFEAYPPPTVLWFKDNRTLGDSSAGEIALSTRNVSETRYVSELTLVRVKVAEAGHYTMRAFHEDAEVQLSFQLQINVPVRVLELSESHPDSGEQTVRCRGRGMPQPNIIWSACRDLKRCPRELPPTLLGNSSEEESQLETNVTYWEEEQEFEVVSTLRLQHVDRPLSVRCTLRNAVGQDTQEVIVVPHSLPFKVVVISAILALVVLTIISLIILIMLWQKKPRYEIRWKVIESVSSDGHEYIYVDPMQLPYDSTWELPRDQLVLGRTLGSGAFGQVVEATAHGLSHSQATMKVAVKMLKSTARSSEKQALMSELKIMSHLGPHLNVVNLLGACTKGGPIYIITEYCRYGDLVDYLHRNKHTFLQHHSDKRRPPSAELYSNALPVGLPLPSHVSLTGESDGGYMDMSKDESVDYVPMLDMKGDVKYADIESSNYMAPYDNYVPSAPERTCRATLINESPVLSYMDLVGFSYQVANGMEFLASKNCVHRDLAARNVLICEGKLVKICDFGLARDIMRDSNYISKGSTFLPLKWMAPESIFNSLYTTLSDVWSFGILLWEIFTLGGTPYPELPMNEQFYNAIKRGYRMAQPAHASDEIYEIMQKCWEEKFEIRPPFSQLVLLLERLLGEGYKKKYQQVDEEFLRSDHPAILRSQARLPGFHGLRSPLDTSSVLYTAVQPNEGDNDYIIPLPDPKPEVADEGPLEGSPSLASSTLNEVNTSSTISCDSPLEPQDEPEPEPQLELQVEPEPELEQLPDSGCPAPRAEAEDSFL
In the next assay the test system is SK-OV-3. Put plainly: Antiproliferative activity against human SKOV3 cells after 72 hrs by MTT assay. The following applies: SK-OV-3, 72 h.
In a further assay the test system is HeLa. Put plainly: Antiproliferative activity against human HeLa cells after 72 hrs by MTT assay.
In assay [2] the test system is HT-29. Put plainly: Antiproliferative activity against human HT-29 cells after 72 hrs by MTT assay. Conditions: HT-29, 72 h.
The subject of assay [3] is HT-29. Put plainly: Induction of apoptosis in human HT-29 cells after 48 hrs by acridine orange/ethidium bromide staining based confocal laser scanning microscopic method. The class given is functional, cell-based.
For assay [4], the target named is Vascular endothelial growth factor receptor 1 (Homo sapiens, UniProt P17948). Nature of the assay: Inhibition of recombinant human GST-tagged VEGFR1 cytoplasmic domain (781 to 1338 residues) expressed in baculovirus expression system preincubated for 10 mins followed by FAM-labeled peptide substrate addition measured after 1 hr by mobility shift assay.
Chain of Vascular endothelial growth factor receptor 1 (P17948 whole entry, the tested form may be a part): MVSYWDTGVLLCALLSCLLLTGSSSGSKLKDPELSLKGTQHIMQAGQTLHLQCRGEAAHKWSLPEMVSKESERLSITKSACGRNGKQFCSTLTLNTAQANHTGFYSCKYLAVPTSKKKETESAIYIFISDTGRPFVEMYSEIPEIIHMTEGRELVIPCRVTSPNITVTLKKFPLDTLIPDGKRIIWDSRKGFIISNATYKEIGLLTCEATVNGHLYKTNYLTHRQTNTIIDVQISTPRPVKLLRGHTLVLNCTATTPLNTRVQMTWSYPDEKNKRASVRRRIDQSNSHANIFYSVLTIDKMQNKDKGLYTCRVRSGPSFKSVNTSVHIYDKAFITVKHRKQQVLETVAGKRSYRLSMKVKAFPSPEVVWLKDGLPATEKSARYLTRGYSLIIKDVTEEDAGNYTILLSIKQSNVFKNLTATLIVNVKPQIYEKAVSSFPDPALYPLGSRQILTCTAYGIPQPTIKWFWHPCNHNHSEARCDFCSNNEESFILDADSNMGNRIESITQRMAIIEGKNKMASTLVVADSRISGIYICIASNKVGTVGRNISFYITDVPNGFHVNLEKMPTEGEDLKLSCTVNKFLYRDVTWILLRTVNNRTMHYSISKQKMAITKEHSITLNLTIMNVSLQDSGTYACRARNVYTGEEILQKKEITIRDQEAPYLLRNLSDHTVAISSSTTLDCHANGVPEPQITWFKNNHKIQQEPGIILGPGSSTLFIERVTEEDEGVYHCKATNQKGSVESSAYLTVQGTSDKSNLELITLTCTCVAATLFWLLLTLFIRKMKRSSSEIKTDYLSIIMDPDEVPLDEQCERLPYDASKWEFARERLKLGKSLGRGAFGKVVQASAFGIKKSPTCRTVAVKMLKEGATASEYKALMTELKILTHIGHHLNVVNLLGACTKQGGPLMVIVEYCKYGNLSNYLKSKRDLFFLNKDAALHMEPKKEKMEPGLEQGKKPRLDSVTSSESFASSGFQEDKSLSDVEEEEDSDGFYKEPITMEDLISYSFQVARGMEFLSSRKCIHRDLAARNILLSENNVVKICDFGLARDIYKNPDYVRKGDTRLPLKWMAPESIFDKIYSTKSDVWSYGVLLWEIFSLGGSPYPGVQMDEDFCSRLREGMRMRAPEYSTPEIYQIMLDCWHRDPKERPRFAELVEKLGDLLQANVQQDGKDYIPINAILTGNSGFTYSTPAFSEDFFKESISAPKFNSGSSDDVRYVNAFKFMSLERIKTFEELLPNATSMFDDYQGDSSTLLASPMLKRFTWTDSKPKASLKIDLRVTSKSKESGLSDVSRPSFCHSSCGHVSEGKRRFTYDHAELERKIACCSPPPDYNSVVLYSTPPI
Assay [5] addresses Fibroblast growth factor receptor 1 (Homo sapiens, UniProt P11362). Nature of the assay: Inhibition of recombinant human GST-tagged FGFR1 cytoplasmic domain (398 to 822 residues) expressed in baculovirus expression system preincubated for 10 mins followed by FAM-labeled peptide substrate addition measured after 1 hr by mobility shift assay.

Chain of Fibroblast growth factor receptor 1 (P11362 whole entry, the tested form may be a part): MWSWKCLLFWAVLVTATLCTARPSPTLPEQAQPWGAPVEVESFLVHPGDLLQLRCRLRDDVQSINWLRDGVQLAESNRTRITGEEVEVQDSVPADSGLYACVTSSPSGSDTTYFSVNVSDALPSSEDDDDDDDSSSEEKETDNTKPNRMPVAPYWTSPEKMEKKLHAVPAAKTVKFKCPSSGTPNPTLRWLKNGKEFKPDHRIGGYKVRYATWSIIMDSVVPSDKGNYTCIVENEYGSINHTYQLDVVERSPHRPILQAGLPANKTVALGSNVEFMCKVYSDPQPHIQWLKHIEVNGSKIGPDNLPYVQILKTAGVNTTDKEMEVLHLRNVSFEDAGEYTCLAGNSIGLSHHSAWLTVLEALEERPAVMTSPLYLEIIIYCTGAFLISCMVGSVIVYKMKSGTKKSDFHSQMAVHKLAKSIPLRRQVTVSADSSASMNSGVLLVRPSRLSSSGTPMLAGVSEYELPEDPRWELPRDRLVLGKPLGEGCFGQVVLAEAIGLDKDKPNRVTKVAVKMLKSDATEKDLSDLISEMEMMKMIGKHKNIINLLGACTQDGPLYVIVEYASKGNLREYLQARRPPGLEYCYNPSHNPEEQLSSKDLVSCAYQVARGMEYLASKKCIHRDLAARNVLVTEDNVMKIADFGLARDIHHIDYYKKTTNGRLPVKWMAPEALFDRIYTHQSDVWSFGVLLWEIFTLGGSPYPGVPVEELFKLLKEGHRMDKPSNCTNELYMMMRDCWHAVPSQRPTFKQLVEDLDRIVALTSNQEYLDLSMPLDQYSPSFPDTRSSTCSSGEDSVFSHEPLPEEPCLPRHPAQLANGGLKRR

In the case of `COC(=O)c1ccc2c(c1)NC(=O)/C2=C(\Nc1ccc(Cn2cccc2CN2CCN(C)CC2)cc1)c1ccccc1`, in assay [1], the IC50 is 67.8 nM.
On to `COC(=O)c1ccc2c(c1)NC(=O)/C2=C(\Nc1ccc(-n2cccc2CN2CCCC2)cc1)c1ccccc1`, for which, in assay [1], the IC50 turned out to be 27.1 nM.
`COC(=O)c1ccc2c(c1)NC(=O)/C2=C(\Nc1ccc(-n2cccc2CN2CCN(C)CC2)cc1)c1ccccc1`: the IC50 with SK-OV-3 stood at 25900 nM; in the assay on HeLa, 30400 nM; in the assay on HT-29 [2], 3120 nM; in assay [1], 83.2 nM.
For the molecule `COC(=O)c1ccc2c(c1)NC(=O)/C2=C(\Nc1ccc(Cn2cccc2CN(C)C)cc1)c1ccccc1`, the IC50 in assay [1] was 29.8 nM.
Take `COC(=O)c1ccc2c(c1)NC(=O)/C2=C(\Nc1ccc(-n2cccc2CN(C)C)cc1)c1ccccc1`: in the assay with HT-29 [3], the Activity entry was “Dose-dependent effect”. Further, the IC50 is 5220 nM in the assay on SK-OV-3; 99.2 nM in assay [4]; 53200 nM in the assay with HeLa; more than 500 nM in assay [5]; 980 nM in the assay on HT-29 [2]; 14.3 nM in assay [1].
Turning to `COC(=O)c1ccc2c(c1)NC(=O)/C2=C(\Nc1ccc(N(C)C(=O)CN2CCN(C)CC2)cc1)c1ccccc1` [NINTEDANIB], the IC50 worked out at 28800 nM in the assay with SK-OV-3, 51600 nM in the assay with HeLa and 4900 nM in the assay on HT-29 [2].
As for `COC(=O)c1ccc2c(c1)NC(=O)/C2=C(\Nc1ccc(-n2cccc2CN2CCCCC2)cc1)c1ccccc1`, the IC50 in assay [1] was 45.5 nM.
Consider `CCN(CC)Cc1cccn1-c1ccc(N/C(=C2\C(=O)Nc3cc(C(=O)OC)ccc32)c2ccccc2)cc1`, for which the IC50 in assay [1] stood at 31.4 nM.
As to `COC(=O)c1ccc2c(c1)NC(=O)/C2=C(\Nc1ccc(-n2cccc2CN2CCNCC2)cc1)c1ccccc1`, the IC50 in assay [1] is 65.2 nM.
